Results taken from ChEMBL document CHEMBL1133880 (Bioorg Med Chem Lett, 2001).
Residues, ends and D or L forms follow the SMILES beside them. *: point of attachment. Octanoyl = CCCCCCCC(=O)*

Legend:
[1] = biological target: T1, Growth hormone secretagogue receptor type 1 (Homo sapiens, UniProt Q92847); test: Functional potency measured as intracellular calcium elevation in Hek-293 cells expressing hGHSR1a; assay type: cell-based, HEK293
[2] = biological target: T1, Growth hormone secretagogue receptor type 1; test: Binding affinity towards human Growth hormone secretagogue receptor type 1 using competitive binding assay with radiolabeled [35S]-MK-0677 expressed as IC50

T1 sequence (Q92847 whole entry): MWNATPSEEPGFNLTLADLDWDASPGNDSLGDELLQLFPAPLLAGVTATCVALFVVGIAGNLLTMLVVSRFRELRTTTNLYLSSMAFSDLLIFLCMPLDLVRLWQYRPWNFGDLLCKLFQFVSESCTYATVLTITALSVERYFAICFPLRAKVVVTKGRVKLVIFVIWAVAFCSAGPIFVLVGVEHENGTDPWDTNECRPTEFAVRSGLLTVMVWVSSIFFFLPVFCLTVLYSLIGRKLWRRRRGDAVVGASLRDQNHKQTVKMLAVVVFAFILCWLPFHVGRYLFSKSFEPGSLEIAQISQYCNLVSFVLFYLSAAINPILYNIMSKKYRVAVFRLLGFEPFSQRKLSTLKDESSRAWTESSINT

EC50 [1] [nM]	IC50 [2] [nM]	Structure (SMILES)
432	829	CCCCCCCC(=O)OC[C@@H](NC(=O)[C@@H](N)CO)C(=O)N1CCC2(CC1)CN(S(C)(=O)=O)c1ccccc12
19.6	8.12	CCCCCCCC(=O)OC[C@@H](NC(=O)C(C)(C)N)C(=O)N1CCC2(CC1)CN(S(C)(=O)=O)c1ccccc12
69.2	209	CS(=O)(=O)N1CC2(CCN(C(=O)[C@@H](COCc3ccccc3)NC(=O)[C@@H](N)CO)CC2)c2ccccc21
7.95	36.2	CS(=O)(=O)N1CC2(CCN(C(=O)[C@@H](COCc3ccccc3)NC(=O)[C@H](CO)NC(=O)CN)CC2)c2ccccc21
448	2670	CCCCCCCC(=O)OC[C@H](NC(=O)[C@H](CO)NC(=O)CN)C(=O)N1CCC2(CC1)CN(S(C)(=O)=O)c1ccccc12
378	590	CCCCCCCC(=O)OC[C@H](NC(=O)C(C)(C)N)C(=O)N1CCC2(CC1)CN(S(C)(=O)=O)c1ccccc12
68.2	128	CCCCCCCC(=O)OC[C@@H](NC(=O)[C@H](CO)NC(=O)CN)C(=O)N1CCC2(CC1)CN(S(C)(=O)=O)c1ccccc12
72	889	CCCCCCCC(=O)OC[C@H](NC(=O)CN)C(=O)N[C@@H](CO)C(=O)N[C@@H](Cc1ccccc1)C(=O)O (H-GS(Octanoyl)SF-OH)
